From patent US20170035706A1, “DETRUSOR HYPERACTIVITY WITH IMPAIRED CONTRACTILITY AMELIORATING AGENT” (TAIHO PHARMACEUTICAL CO., LTD., priority 2015, published 2017) come the findings set out here.

Each structure is given as a SMILES string. “And” between values parts separate entries of the source, which are not always exact repeats. Equal values may be shown once.

This assay relates to rat dysuria model that presents DHIC. In words: Cystometry and nomogram analysis in rat dysuria model that presents DHIC (partial ligation of urethra). Format: in vivo. As for the experimental part:
The models were produced by partial ligation ((1)1.57 mm) of urethra in rats (9 weeks, female, Sprague-Dawley). Six weeks after preparation of the model, the rats were released the ligation. The next day, the intravesical pressure and the voided volume were measured under awake condition. And the detrusor contractility during voiding phase was evaluated by nomogram analysis using Qmax and Pdet. Additionally, the detrusor overactivity, as index of overactive bladder, and the increase of residual urine volume, as index of underactive bladder, were evaluated.
The dysuria models in this example were prepared in the same manner as in Test Example 1. The test drugs (vehicle: 6% Gelucire, Compound 1 of the present invention 10 mg/kg) were orally administered to each group after two weeks from the preparation of the models twice a day for four weeks. On the day of the final administration, the rats were released the ligation of urethra. The next day, the intravesical pressure and the voided volume were measured using cystometry under conscious condition. The detrusor overactivity, as an index of overactive bladder, and the increase of residual urine volume, as an index of underactive bladder, were evaluated. Additionally, the detrusor contractility during voiding phase was evaluated by nomogram analysis using Qmax and Pdet.
In the same manner as Test Example 1, the rats were released the ligation of urethra at six weeks after the preparation of the model. The next day, the intravesical pressure and the voided volume were measured using cystometry under conscious condition. The detrusor overactivity, as an index of overactive bladder, and the increase of residual urine volume, as an index of underactive bladder, were evaluated. Additionally, the detrusor contractility during voiding phase was evaluated by nomogram analysis using Qmax and Pdet. Tamsulosin (3 μg/kg) was administered intravenously to the dysuria rat at the evaluation (six weeks after preparation of the model).

Consider `CCOc1ccccc1OCCN[C@H](C)Cc1ccc(OC)c(S(N)(=O)=O)c1` [Tamsulosin, reference compound], for which the “Detrusor contractility in nomogram analysis” value (3 μg/kg intravenously at the evaluation, vs control (FIG. 2)) is given as “no effect”. The compound also yielded a Detrusor overactivity (female Sprague-Dawley rats, 3 μg/kg intravenously at the evaluation, conscious cystometry, control 1.73 ± 0.10) of 0.68±0.33 times/min.

For the compound `CC1=C(CCCCCCCCCCCCCCCO)C(C)(C)CCC1=O` [Compound 1 of the present invention, 3-(15-hydroxypentadecyl)-2,4,4-trimethyl-2-cyclohexene-1-one], for the setting “10 mg/kg orally twice a day for four weeks, control 4.24±0.53, sham 24.75±3.14”, the “Detrusor contractility during voiding phase: distance from the origin in nomogram analysis (Qmax, Pdet)” value is recorded as 10.5±2.3. Further, the Residual urine volume (female Sprague-Dawley rats, 10 mg/kg orally twice a day for four weeks, conscious cystometry, control 0.57 ± 0.06, sham 0.10 ± 0.03, 10 mg/kg) is 0.28 ± 0.13 mL. In addition, the Detrusor overactivity (female Sprague-Dawley rats, 10 mg/kg orally twice a day for four weeks, conscious cystometry, control 1.73 ± 0.10, sham 0.19 ± 0.09, 10 mg/kg) is 0.63±0.14 times/min and 0.63 ± 0.10 times/min.
